Counter-ions that a name gives are not always drawn.
Legend:
[1] = target: human cloned 5-HT6 receptors (Homo sapiens, UniProt P50406); assay: Evaluation of 5-HT6 binding affinity of test compounds ([3H]-LSD displacement)
human cloned 5-HT6 receptors, sequence (P50406 whole entry): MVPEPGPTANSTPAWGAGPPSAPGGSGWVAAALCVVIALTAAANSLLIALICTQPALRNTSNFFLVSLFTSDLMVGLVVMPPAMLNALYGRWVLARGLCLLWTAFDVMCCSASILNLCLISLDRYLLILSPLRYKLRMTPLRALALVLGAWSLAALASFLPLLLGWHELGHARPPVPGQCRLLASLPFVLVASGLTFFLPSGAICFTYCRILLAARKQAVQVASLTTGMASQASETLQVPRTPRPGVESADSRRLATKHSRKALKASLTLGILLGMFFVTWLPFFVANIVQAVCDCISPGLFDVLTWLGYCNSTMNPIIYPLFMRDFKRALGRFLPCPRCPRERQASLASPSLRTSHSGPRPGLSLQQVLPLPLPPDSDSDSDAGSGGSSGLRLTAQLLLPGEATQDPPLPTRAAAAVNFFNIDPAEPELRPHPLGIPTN

Row | melting point | Ki [1] | SMILES
1 | 252 to 254 °C | – | CN1CCC(Oc2ccc3[nH]nc(S(=O)(=O)c4cccc5ccccc45)c3c2)CC1 (as salt: hydrochloride) [Example 21, 5-(1-Methylpiperidin-4-yloxy)-3-(1-naphthylsulfonyl)-1H-indazole Hydrochloride]
2 | 168 to 170 °C | 0.01 to 10 nM | O=S(=O)(c1cccc2ccccc12)c1n[nH]c2ccc(OCC3CCCNC3)cc12 (centres unmarked) [Example 28, 3-(1-Naphthylsulfonyl)-5-(piperidin-3-ylmethoxy)-1H-indazole]
3 | 178 to 180 °C | 0.01 to 10 nM | O=S(=O)(c1cccc2ccccc12)c1n[nH]c2ccc(OC3CCCNC3)cc12 (centres unmarked) [Example 29, 3-(1-Naphthylsulfonyl)-5-(piperidin-3-yloxy)-1H-indazole]
4 | 168 to 170 °C (dec.) | – | O=S(=O)(c1cccc2ccccc12)c1n[nH]c2ccc(OC3CCNC3)cc12 (centres unmarked) (as salt: hydrochloride) [Example 1, 3-(Naphthalene-1-sulfonyl)-5-(pyrrolidin-3-yloxy)-1H-indazole]
5 | 174 to 176 °C (dec.) | – | O=S(=O)(c1cccc2ccccc12)c1n[nH]c2ccc(OC3CCNCC3)cc12 (as salt: hydrochloride) [Example 6, 3-(1-Naphthylsulfonyl)-5-(piperidin-4-yloxy)-1H-indazole Hydrochloride]
6 | – | 0.01 to 10 nM | O=S(=O)(c1ccc2ccccc2c1)c1n[nH]c2ccc(NC3CCNCC3)cc12 [Example 44, 3-(2-naphthylsulfonyl)-N-piperidin-4-yl-1H-indazol-5-amine]
7 | – | 0.01 to 10 nM | COc1cccc(S(=O)(=O)c2n[nH]c3ccc(OC4CCNCC4)cc23)c1 [Example 13, 3-[(3-methoxyphenyl)sulfonyl]-5-(piperidin-4-yloxy)-1H-indazole]
8 | – | 0.01 to 10 nM | O=S(=O)(c1cccc(C(F)(F)F)c1)c1n[nH]c2ccc(OC3CCNCC3)cc12 [Example 15, 5-(piperidin-4-yloxy)-3-{[3-(trifluoromethyl)phenyl]sulfonyl}-1H-indazole]
9 | – | 36 to 45 nM | O=S(=O)(c1cccc2ccccc12)c1n[nH]c2cc(NCC3CCNCC3)ccc12 [Example 35, 3-(1-Naphthylsulfonyl)-N-(piperidin-4-ylmethyl)-1H-indazol-6-amine Dihydrochloride]
10 | – | 0.01 to 10 nM | O=S(=O)(c1ccc(Cl)cc1)c1n[nH]c2ccc(NC3CCNCC3)cc12 [Example 43, 3-[(4-chlorophenyl)sulfonyl]-N-piperidin-4-yl-1H-indazol-5-amine]
11 | 175 to 177 °C | 11 to 25 nM | O=S(=O)(c1cccc2ccccc12)c1n[nH]c2ccc(OCC3CCNCC3)cc12 [Example 27, 3-(1-naphthylsulfonyl)-5-(piperidin-4-ylmethoxy)-1H-indazole]
12 | – | 11 to 25 nM | O=S(=O)(c1cccc2ccccc12)c1n[nH]c2ccc(OC3CCN(CCc4ccccc4)CC3)cc12 [Example 23, 3-(1-Naphthylsulfonyl)-5-{[1-(2-phenylethyl)piperidin-4-yl]oxy}-1H-indazole Hydrochloride]
13 | – | 0.01 to 10 nM | CN1CCC(Oc2ccc3[nH]nc(S(=O)(=O)c4cccc5ccccc45)c3c2)CC1 [Example 21, 5-(1-Methylpiperidin-4-yloxy)-3-(1-naphthylsulfonyl)-1H-indazole Hydrochloride]
14 | – | 0.01 to 10 nM | O=S(=O)(c1cccc(Cl)c1)c1n[nH]c2ccc(OC3CCNCC3)cc12 [Example 10, 3-[(3-chlorophenyl)sulfonyl]-5-(piperidin-4-yloxy)-1H-indazole]

— US7790751B2, “Azinyl-3-sulfonylindazole derivatives as 5-hydroxytryptamine-6 ligands” (Wyeth LLC, priority 2005, dated 2010)
